Assay results reported in patent publication US20090227607A1, “DEAZAPURINES USEFUL AS INHIBITORS OF JANUS KINASES” (priority 2006, published 2009).

How the values were obtained:
JAK-2 enzyme = JAK-2 enzyme (Homo sapiens, UniProt O60674); experiment: JAK2 Inhibition Assay; format: biochemical; conditions: 15 μM poly(Glu)4Tyr, 12 μM ATP, 25° C.
Outline: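 JAK2 kinase in HEPES pH 7.4 buffer with MgCl2, DTT, NaCl and BSA; final 15 μM poly(Glu)4Tyr and 12 μM [33P]ATP. Enzyme added to start, 20 min at 25 °C, TCA stop, filter capture and scintillation count of 33P incorporation; Ki values.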

JAK3 = target: T1, JAK3 (Homo sapiens, UniProt P52333); experiment: JAK3 Inhibition Assay; format: biochemical; conditions: 1 μM poly(Glu)4Tyr, 5 μM ATP, 1 nM JAK3, 25° C.; read-out: JAK3 enzyme inhibition data (Ki)
T1 sequence (P52333 1-1124): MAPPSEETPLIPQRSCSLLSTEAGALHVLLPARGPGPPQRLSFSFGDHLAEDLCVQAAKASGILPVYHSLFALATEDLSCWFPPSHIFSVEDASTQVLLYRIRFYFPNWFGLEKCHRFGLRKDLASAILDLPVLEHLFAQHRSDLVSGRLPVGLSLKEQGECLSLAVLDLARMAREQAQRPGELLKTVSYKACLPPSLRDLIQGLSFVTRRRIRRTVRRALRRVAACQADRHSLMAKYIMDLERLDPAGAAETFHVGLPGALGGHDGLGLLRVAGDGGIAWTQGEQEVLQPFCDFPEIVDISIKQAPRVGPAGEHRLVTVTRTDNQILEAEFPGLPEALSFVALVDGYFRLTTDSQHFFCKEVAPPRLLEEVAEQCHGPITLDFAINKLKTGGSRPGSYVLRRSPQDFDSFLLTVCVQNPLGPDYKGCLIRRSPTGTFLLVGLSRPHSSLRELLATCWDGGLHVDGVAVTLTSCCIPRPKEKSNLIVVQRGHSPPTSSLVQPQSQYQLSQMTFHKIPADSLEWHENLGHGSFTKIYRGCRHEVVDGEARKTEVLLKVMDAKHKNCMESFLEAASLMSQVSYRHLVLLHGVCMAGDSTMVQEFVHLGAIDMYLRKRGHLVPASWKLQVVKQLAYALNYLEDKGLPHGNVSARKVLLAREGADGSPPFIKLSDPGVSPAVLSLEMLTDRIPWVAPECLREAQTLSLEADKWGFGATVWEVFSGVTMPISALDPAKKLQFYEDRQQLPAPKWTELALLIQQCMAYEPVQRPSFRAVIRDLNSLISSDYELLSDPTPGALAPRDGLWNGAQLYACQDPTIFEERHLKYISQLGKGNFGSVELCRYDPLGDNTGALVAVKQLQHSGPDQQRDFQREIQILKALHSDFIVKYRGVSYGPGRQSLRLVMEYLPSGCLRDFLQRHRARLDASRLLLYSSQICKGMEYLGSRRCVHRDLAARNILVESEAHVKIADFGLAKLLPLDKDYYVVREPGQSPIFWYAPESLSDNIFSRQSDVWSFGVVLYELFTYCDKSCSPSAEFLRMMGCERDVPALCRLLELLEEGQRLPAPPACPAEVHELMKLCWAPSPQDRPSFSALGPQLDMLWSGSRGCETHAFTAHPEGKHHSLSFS
Outline: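 Radiometric JAK3 (1 nM) reaction with 5 μM [33P]ATP and 1 μM poly(Glu)4Tyr in HEPES pH 7.4 buffer, run for 20 min at 25 °C. Reactions were stopped with TCA and filter-captured, and 33P incorporation was counted; values reported as Ki.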

Chain of JAK-2 enzyme (O60674 whole entry, species assumed): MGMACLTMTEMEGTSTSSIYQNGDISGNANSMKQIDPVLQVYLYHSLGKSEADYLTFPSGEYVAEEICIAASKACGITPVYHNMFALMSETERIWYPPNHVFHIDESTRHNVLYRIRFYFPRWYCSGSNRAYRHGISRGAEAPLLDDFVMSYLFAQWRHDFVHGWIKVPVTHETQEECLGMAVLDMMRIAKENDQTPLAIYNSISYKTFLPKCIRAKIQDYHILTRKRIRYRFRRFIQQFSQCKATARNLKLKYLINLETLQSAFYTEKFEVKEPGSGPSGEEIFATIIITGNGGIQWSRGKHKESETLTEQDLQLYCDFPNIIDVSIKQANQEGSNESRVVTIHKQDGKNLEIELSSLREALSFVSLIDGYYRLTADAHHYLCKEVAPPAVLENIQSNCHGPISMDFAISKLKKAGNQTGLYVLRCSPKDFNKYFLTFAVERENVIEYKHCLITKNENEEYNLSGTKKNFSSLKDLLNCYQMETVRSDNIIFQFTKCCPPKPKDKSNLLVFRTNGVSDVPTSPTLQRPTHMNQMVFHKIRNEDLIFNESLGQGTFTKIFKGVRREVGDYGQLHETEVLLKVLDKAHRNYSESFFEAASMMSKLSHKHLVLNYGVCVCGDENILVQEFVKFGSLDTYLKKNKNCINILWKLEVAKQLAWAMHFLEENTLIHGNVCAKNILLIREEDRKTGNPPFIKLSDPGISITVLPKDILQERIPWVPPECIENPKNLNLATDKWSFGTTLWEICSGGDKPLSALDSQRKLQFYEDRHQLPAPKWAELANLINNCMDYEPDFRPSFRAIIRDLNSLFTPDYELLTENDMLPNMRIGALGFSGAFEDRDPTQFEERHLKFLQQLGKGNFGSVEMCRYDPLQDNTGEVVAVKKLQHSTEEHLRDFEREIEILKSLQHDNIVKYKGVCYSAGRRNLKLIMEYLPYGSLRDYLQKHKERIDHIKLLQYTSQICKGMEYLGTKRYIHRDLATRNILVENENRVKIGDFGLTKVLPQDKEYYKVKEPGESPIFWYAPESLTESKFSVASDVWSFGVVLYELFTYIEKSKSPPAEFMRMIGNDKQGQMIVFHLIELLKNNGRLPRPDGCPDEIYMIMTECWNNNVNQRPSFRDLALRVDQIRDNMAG

SMILES | Ki (JAK-2 enzyme) | Ki (JAK3)
O=C(c1cc(-c2ncnc3[nH]cc(Cl)c23)c[nH]1)N(CC1CCC1)CC(F)(F)F [Compound 240] | < 0.1 µM | < 0.1 µM
O=C(c1cc(-c2ncnc3[nH]cc(Cl)c23)c[nH]1)N(CCC(F)(F)F)CC1CCC1 [Compound 241] | < 0.1 µM | 0.1 to 0.5 µM
N#CCCN(CCC(F)(F)F)C(=O)c1cc(-c2ncnc3[nH]cc(Cl)c23)c[nH]1 [Compound 242] | < 0.1 µM | < 0.1 µM
CC(C)CN(CCC#N)C(=O)c1cc(-c2ncnc3[nH]cc(Cl)c23)c[nH]1 [Compound 243] | < 0.1 µM | < 0.1 µM
CC(C)CN(CCC(F)(F)F)C(=O)c1cc(-c2ncnc3[nH]cc(Cl)c23)c[nH]1 [Compound 244] | < 0.1 µM | 0.1 to 0.5 µM
C=CCN(CC=C)C(=O)c1cc(-c2ncnc3[nH]ccc23)co1 [Compound 245] | < 0.1 µM | 0.1 to 0.5 µM
CC[C@@H]1CC[C@@H](CC)N1C(=O)c1cc(-c2ncnc3[nH]ccc23)co1 [Compound 246] | < 0.1 µM | 0.1 to 0.5 µM
C=CCN(C(=O)c1cc(-c2ncnc3[nH]ccc23)co1)[C@@H](C)c1ccccc1 [Compound 248] | < 0.1 µM | 0.1 to 0.5 µM
C=CC(=O)c1c[nH]c2ncnc(-c3ccoc3)c12 [Compound 253] | 0.5 to 5 µM | 0.1 to 0.5 µM

Now from value to compound:

Ki (JAK-2 enzyme) | Ki (JAK3) | SMILES
0.1 to 0.5 µM | 0.5 to 5 µM | CC(C)N(CCC(F)(F)F)C(=O)c1cc(-c2ncnc3[nH]ccc23)co1 [Compound 247]
< 0.1 µM | 0.1 to 0.5 µM | O=C(c1cc(-c2ncnc3[nH]ccc23)co1)N(CCC(F)(F)F)CC1CCC1 [Compound 250]
0.1 to 0.5 µM | 0.1 to 0.5 µM | O=C(c1cc(-c2ncnc3[nH]ccc23)co1)N(CC1CCC1)CC(F)(F)F [Compound 251]
0.1 to 0.5 µM | 0.1 to 0.5 µM | CC(C)CN(CCC(F)(F)F)C(=O)c1cc(-c2ncnc3[nH]ccc23)co1 [Compound 252]
